{
  "source": "patent US20210220419A1",
  "about": "“Herbal Nutraceutical Formulation to Reduce Oxidative Stress, Viral and Microbial Infections, and Inflammation” (priority 2017, published 2021)",
  "key": {"[1]": {"assay": "Super oxide radical scavenging assay (NADH/NBT/PMS)", "assay_type": "biochemical", "protocol": "(§1) Gallic acid (reference inhibitor) preparation, For gallic acid, a stock of 500 μg/ml was prepared by dissolving 5 mg of gallic acid in 10 ml of 0.1M phosphate buffer pH 7.4. […] The assay was carried out as per the method of Yen et al. with modifications. In brief, the reaction mixture contained 0.1M phosphate buffer pH 7.4/vehicle buffer/positive control/test sample of various concentrations, 292.5 μM NADH, 37.5 μM NBT and 15 μM PMS. The plate was mixed and incubated at 25° C. for 5 minutes. The absorbance was measured at 560 nm in a micro-plate reader (Versamax, Molecular devices). A control reaction was carried out without test samples. The % inhibition values were calculated as follows: [formula] IC50 was calculated using log-probit analysis."}, "[2]": {"assay": "DPPH radical scavenging assay (Experiment 2)", "assay_type": "biochemical", "protocol": "Gallic acid (reference inhibitor) preparation. For gallic acid, a stock of 200 μg/ml was prepared by dissolving 2 mg of gallic acid in 10 ml of methanol. Further dilutions were made as required with methanol. […] In brief, the total reaction mixture contained methanol/vehicle buffer/positive control/various concentrations of test solution and DPPH to a final concentration of 0.132 mM. The reaction mixture was incubated at 25° C. for 20 minutes. Following incubation the absorbance was read at 510 nm using a micro-well plate reader (Molecular devices Versamax microplate reader). A control reaction was carried out without test samples. The % inhibition values were calculated as follows: [formula] Where, Absorbance=Final Absorbance−Initial absorbance. IC50 was calculated using log-probit analysis."}, "[3]": {"assay": "Solubility of sample preparation upon visual inspection", "assay_type": "physicochemical", "protocol": "Briefly, 12.5 mg of the herbal composition 2 contents was weighed, dissolved in 312.5 μl of DMSO and the volume was made up to 10 ml with 100% methanol. Further dilutions were done in 100% methanol containing 3.125% of DMSO. […] For calculation purposes the sample was considered to be 100% soluble.\nGallic acid (reference inhibitor) preparation. For gallic acid, a stock of 200 μg/ml was prepared by dissolving 2 mg of gallic acid in 10 ml of methanol. Further dilutions were made as required with methanol.\nBriefly, 29.73 mg of the Herbal composition 2 contents was weighed, dissolved in 500 μl of DMSO and the volume was made up to 25 ml with phosphate buffered saline. […] The sample was filtered and the filtrate was used for the assay. For calculation purposes the sample was considered to be 100% soluble.\nTrolox (reference inhibitor) preparation, For trolox, a stock of […] was prepared by dissolving 2 mg of trolox in 2 ml of phosphate buffered saline. […] Further dilutions were made as required with phosphate buffered saline.\nBriefly, 8 mg of the Herbal composition 2 contents was weighed, dissolved in 200 μl of DMSO and the volume was made up to 2 ml with 0.1M phosphate buffer pH 7.4. Further dilutions were done in 0.1M phosphate buffer pH 7.4 containing 10% of DMSO. […] For calculation purposes the sample was considered to be 100% soluble.\nas §1, with “samples.” for “samples. The % inhibition values were calculated as follows: [formula] IC50 was calculated using log-probit analysis.”"}, "rat pancreatic islets": {"tested_on": "rat pancreatic islets", "assay": "Insulin secretion in rat pancreatic islets (ELISA)", "assay_type": "cell-based", "conditions": "3 μM", "description": "The objective of the experiment is to evaluate the effect of herbal supplement test composition on insulin secretion in rat pancreatic islets. Insulin, a peptide hormone, is secreted by pancreatic β-cells and is a key regulator in glucose homeostasis. Insulin deficiency leads to insulin-dependent (type 1) diabetes, whereas resistance to insulin action is common in non-insulin-dependent diabetes (type 2), obesity, and endocrine dysfunctions. The pancreatic β-cells are known to be sensitive to the glucose concentration in the blood. When the blood glucose levels are high they secrete insulin into the blood; when the levels are low they cease their secretion of this hormone into the general circulation. Insulin released by the β-cells is the main regulator of glucose levels.\nFirstly, the herbal supplement composition is dissolved in DMSO with sonication for 15 min and centrifuged at 10,000 rpm for 10 minutes at room temperature to remove insoluble debris. Glyburide (CAS: 10238-21-8) and Glucose are used as reference compounds in the present experiment. Glyburide (CAS: 10238-21-8) is dissolved in DMSO and used at 3 μM. […]\nAt the end of the 1 hr incubation period, 20 μl of supernatant is gently transferred to another plate. Insulin secretion is measured using the Mercodia Rat Insulin ELISA kit according to the manufacturer's protocol. […]"}, "LDL oxidation": {"tested_on": "LDL oxidation", "assay": "LDL oxidation inhibition assay, human serum, copper sulphate (Experiment 3)", "assay_type": "biochemical", "protocol": "The sample was filtered and the filtrate was used for the assay. […] Trolox (reference inhibitor) preparation, For trolox, a stock of […] was prepared by dissolving 2 mg of trolox in 2 ml of phosphate buffered saline. […] Further dilutions were made as required with phosphate buffered saline. The assay was carried out as per the method of Hodgson et al with modifications. In brief, the reaction mixture contained phosphate buffered saline/vehicle buffer/positive control/test sample of various concentrations and serum from fasting human. Copper sulphate solution was added to the reaction mixture to start the reaction. The reaction mix was mixed and read immediately at 234 nm using a UV-VIS spectrophotometer, for the initial reading, and incubated. After the completion of incubation period, the final absorbance was measured at 234 nm. A control reaction was carried out without test samples. The % inhibition values were calculated as follows: [formula] Where, Absorbance=Final Absorbance−Initial absorbance. IC50 was calculated using log-probit analysis."}, "[4]": {"assay": "DPPH radical scavenging activity, cell-free assay (Experiment 7)", "assay_type": "biochemical", "conditions": "200 μM DPPH, 30 min", "protocol": "The objective of this experiment is to evaluate the effect of the supplement concentration on DPPH radical scavenging activity in a cell-free assay. The supplement concentration is dissolved in DMSO with sonication for 15 min and centrifuged at 10,000 rpm for 10 min at room temperature to remove insoluble debris. 2,2-Diphenyl-1-picrylhydrazyl (DPPH) is used as a reagent for this experiment. DPPH is an antioxidant reagent that is used as a free radical trap or scavenger. The color of DPPH changes from red to yellow as its scavenging activity increases. This is measured by absorbance at 517 nm. The reference compound used is Trolox (CAS: 53188-07-1). The Trolox is dissolved in DMSO and used at different concentrations. Trolox is used as positive control.\nA reaction mix is made in 200 μL methanol containing 200 μM of DPPH and various concentrations of the supplement. The mixture is mixed gently with a pipette and left to stand for 30 min in the dark, after which absorbance readings are taken at 517 nm. The change in DPPH absorbance is calculated relative to the absorbance of DPPH alone i.e. without the supplement. The DMSO concentration in the assay is maintained at less than equal to 1.0%. The data is fit to a non-linear regression using Graph pad Prism (version 5.0). […]"}, "Caco-2 cells": {"tested_on": "Caco-2 cells", "assay": "NBD-cholesterol uptake in Caco-2 cells", "assay_type": "cell-based, human", "conditions": "positive control, 1.25, 2.5, 5 and 10 μM, 48 hrs", "protocol": "The objective of the experiment is to evaluate the effect of the supplement composition on cholesterol uptake in Caco-2 (human epithelial colorectal adenocarcinoma) cells. Cholesterol is both an important structural component of cell membranes and an early intermediate in hormone and bile acid biosynthesis. The supplement composition is dissolved in Dimethyl Sulphoxide (DMSO) with sonication for 15 min and centrifuged at 10,000 rpm for 10 min at room temperature to remove insoluble debris. The reference compound used in the present experiment is U-18666A (CAS: 3039-71-2), which increases cholesterol uptake by inhibiting trafficking of synthesized cholesterol. The U-18666A is dissolved in DMSO and used at a concentration of about 1.25, 2.5, 5 and 10 μM. Moreover, U-18666A is used as a positive control. The reagent used is 3-hexanoyl-NBD Cholesterol. Caco-2 cells are maintained at 60-70% confluence in complete growth medium EMEM containing 20% FBS and required antibiotic. For the assay, cells are harvested using 0.25% trypsin EDTA. The trypsinized cells are centrifuged at 1200 rpm for 5 minutes and re-suspended in growth medium. […] At the end of the incubation period, the plates are washed twice with PBS and cholesterol uptake is calculated by measuring NBD cholesterol fluorescence (Ex 485 nm, Em 535 nm). […]"}, "[5]": {"tested_on": "Low Density Lipoproteins, Human Plasma", "assay": "LDL oxidation in a cell-free system, Cu2+ induced (Experiment 10)", "assay_type": "biochemical", "conditions": "reference compounds, FIG. 6B"}},
  "note": "Read-outs that look alike come from different tables or passages of the source.",
  "data": [
    {"smiles": "O=C(O)c1cc(O)c(O)c(O)c1", "note": "[Gallic Acid, Gallic acid]", "values": [
      {"measurement": "% Inhibition (Mean ± SEM), super oxide radical", "setting": "[1]; 5 μg/ml", "value": "27.00 ± 3.37", "unit": "%"},
      {"measurement": "% Inhibition (Mean ± SEM), super oxide radical", "setting": "[1]; 10 μg/ml", "value": "32.89 ± 3.26", "unit": "%"},
      {"measurement": "% Inhibition (Mean ± SEM), super oxide radical", "setting": "[1]; 20 μg/ml", "value": "47.80 ± 4.26", "unit": "%"},
      {"measurement": "% Inhibition (Mean ± SEM), super oxide radical", "setting": "[1]; 40 μg/ml", "value": "69.50 ± 1.00", "unit": "%"},
      {"measurement": "% Inhibition (Mean ± SEM), super oxide radical", "setting": "[1]; 80 μg/ml", "value": "83.67 ± 0.00", "unit": "%"},
      {"measurement": "IC50 (95% Confidence Interval), super oxide radical scavenging", "setting": "[1]; log-probit analysis", "value": 17.86, "unit": "µg/mL"},
      {"measurement": "% Inhibition (Mean ± SEM), DPPH", "setting": "[2]; 0.5 μg/ml", "value": "8.71 ± 1.12", "unit": "%"},
      {"measurement": "% Inhibition (Mean ± SEM), DPPH", "setting": "[2]; 1.5 μg/ml", "value": "32.14 ± 2.42", "unit": "%"},
      {"measurement": "% Inhibition (Mean ± SEM), DPPH", "setting": "[2]; 2.5 μg/ml", "value": "60.58 ± 2.84", "unit": "%"},
      {"measurement": "% Inhibition (Mean ± SEM), DPPH", "setting": "[2]; 5 μg/ml", "value": "80.52 ± 0.57", "unit": "%"},
      {"measurement": "IC50 (95% Confidence Interval), DPPH radical scavenging", "setting": "[2]; log-probit analysis", "value": 2.09, "unit": "µg/mL"},
      {"measurement": "Solubility upon visual inspection", "setting": "[3]", "value": "approximately 100%"},
      {"measurement": "Solubility upon visual inspection", "setting": "[3]; pH 7.4", "value": "approximately 100%"}
    ]},
    {"smiles": "COc1ccc(Cl)cc1C(=O)NCCc1ccc(S(=O)(=O)NC(=O)NC2CCCCC2)cc1", "note": "[Glyburide]", "values": [
      {"measurement": "Insulin secretion, effect in words", "setting": "rat pancreatic islets", "value": "significant increase"}
    ]},
    {"smiles": "Cc1c(C)c2c(c(C)c1O)CCC(C)(C(=O)O)O2", "note": "(centres unmarked) [Trolox]", "values": [
      {"measurement": "% Inhibition (Mean ± SEM), LDL oxidation", "setting": "LDL oxidation; 0.25 μM", "value": "48.80 ± 6.21", "unit": "%"},
      {"measurement": "% Inhibition (Mean ± SEM), LDL oxidation", "setting": "LDL oxidation; 0.5 μM", "value": "73.07 ± 3.39", "unit": "%"},
      {"measurement": "% Inhibition (Mean ± SEM), LDL oxidation", "setting": "LDL oxidation; 1.0 μM", "value": "76.33 ± 0.07", "unit": "%"},
      {"measurement": "% Inhibition (Mean ± SEM), LDL oxidation", "setting": "LDL oxidation; 2.0 μM", "value": "79.04 ± 0.64", "unit": "%"},
      {"measurement": "IC50", "setting": "LDL oxidation; log-probit analysis, read-out: IC50 (95% Confidence Interval), LDL oxidation inhibition", "value": 180, "unit": "nM"},
      {"measurement": "EC50, DPPH scavenging activity", "setting": "[4]", "value": 28, "unit": "µg/mL"},
      {"measurement": "Solubility upon visual inspection", "setting": "[3]", "value": "approximately 100%"}
    ]},
    {"smiles": "CCN(CC)CCO[C@H]1CC[C@@]2(C)C(=CC[C@@H]3[C@@H]2CC[C@]2(C)C(=O)CC[C@@H]32)C1", "note": "[U-18666A]", "values": [
      {"measurement": "Increase in NBD-cholesterol uptake", "setting": "Caco-2 cells", "value": "up to 25%"}
    ]},
    {"smiles": "O=C1O[C@H]([C@@H](O)CO)C(O)=C1O", "note": "[ascorbic acid]", "values": [
      {"measurement": "Inhibition of LDL oxidation, in words", "setting": "[5]", "value": "significant inhibition"}
    ]}
  ]
}
